Series [1] is described as follows: Solubility in 1% sodium dodecyl sulfate (SDS) by LC-UV. The following applies: aqueous with cosolvent or surfactant or cyclodextrin, thermodynamic from solid, 1% SDS, 24 hours rotation. The format is physicochemical. Here is the method: The solubility was determined in different media by use of LC-UV chromatography. An excess amount of substance was weighed in vials and 0.5 ml of the medium was added. The substance was rotated in the specific medium at ambient temperature for 24 hours, followed by filtering the supernatant using a hydrophilic PVDF (Millipore Corp.) 0.22 μm filter. The samples were then diluted with a 1:1 mixture of mobile phase A and B (see below) and analyzed using an Xterra™ MS C18, 50×2.1 mm column with UV detection at 288 nm. The mobile phase consisted of acetonitrile, water and trifluoroacetic acid, 5:95:0.1(A) and 99:1:0.1(B).

The test system of series [2] is progressive non-small cell lung cancer (NSCLC). The series is described as follows: Phase I/II clinical trial in patients with progressive non-small cell lung cancer. The class given is in vivo. Here is the method:
The patients were assessed with imaging at the start of the study and thereafter every two months.

The solubility is how much of the substance goes into solution per volume. High values mean much dissolved substance, low ones little dissolved substance. In the case of `COc1cc(C2c3cc4c(cc3C(O)[C@H]3COC(=O)[C@@H]23)OCO4)cc(OC)c1OC` (stereo partly drawn) [picropodophyllin monohydrate], the solubility at 24 h in series [1] (ambient temperature) amounted to 210 µg/mL; in series [1] (corresponds to the mg/ml value), 489 µM. Further, in series [2] (NSCLC patients, 390 or 520 mg twice-daily), the “patients with partial response according to RECIST criteria” value is recorded as “one”. Further, in series [2] (of ten NSCLC patients, 390 or 520 mg twice-daily), the “patients still alive at cut-off” value was “five”. Moreover, the “patients with no detectable progression at cut-off” value in series [2] (of the five NSCLC patients still alive, 390 or 520 mg twice-daily) is “two”. Moreover, in series [2] (ten NSCLC patients, 390 or 520 mg twice-daily monotherapy, at least two weeks, expected median survival less than 20 weeks), the median survival time is recorded as 42 weeks.
